Patent US6566140B2, “Inhibition of coagulation in blood and blood products” (University of Vermont and State Agriculture College, priority 1998, dated 2003)

How the values were obtained:
[1] = test system: tissue factor initiated clotting of platelet poor plasma; assay: plasma clotting assay using CTI (Example 3); format: biochemical, human; settings: patients on stabilized coumadin therapy
Experimental: Blood was drawn directly into sterile buffered 3.8% sodium citrate tubes (Vacutainer brand, product # L10318-00, Becton-Dickinson and Co.), and the tubes were centrifuged at 4227 RCF for 3 minutes (Baxter Stat 60 bench top centrifuge). The supernatant was decanted and an automated PT was established for each patient sample. Platelet poor samples were isolated by further centrifugation for 10 minutes at 14,000 rpm, and the top two-thirds of the plasma was transferred to a Sarstedt rectic cup where it was stored for subsequent analysis at −80° C. Prior to thawing, CTI (stock concentration 1-5 mg/mL) was layered onto the frozen sample in an amount sufficient to give a final concentration of 100 μg CTI/mL plasma. Such citrated plasma containing CTI was used within 0-2 hours (stored at 2-8° C.).
Platelet poor plasma collected as described in Example 1 or 2 from either patients or normal donors, was delivered (100 μL) into a 12×75 mm disposable polystryrene tube (VWR Scientific, product #60818-361). Calcium chloride (10 μL, 300 mM CaCl2) was added, followed immediately by an amount of concentrated PSPC (prepared as described above, typical stock concentration ˜1-5 mM in HBS, pH 7.4) so that the final concentration of lipid in the mixture was […]. To initiate the reaction at zero time, 20 μL of stock tissue factor reagent (described below) was added to a final TF concentration of 1 nM. […]

[2] = test system: tissue factor initiated clotting of recalcified citrated plasma; assay: extended plasma prothrombin time (XpPT) assay; format: biochemical, human; settings: for clot time of patient plasma: patients on Coumadin therapy, 0.5 nM TF, 100 μg/ml CTI; for XpPT clot time of patient plasma (s.e.m.): patients on moderate Coumadin therapy, 0.5 nM tissue factor
Experimental: The result was a standard system of coagulation evaluation in which a plasma sample collected in 11 mM trisodium citrate was frozen (standard pathology laboratory collection system) defrosted in the presence of 100 μgm/ml corn trypsin inhibitor (final concentration) and the assay ultimately conducted described in Materials and Methods section below. The final concentrations in the tissue factor clotting sample included 100 μgm/ml CTI 30 mM CaCl2, 50 μM 75% PC:25PS vesicles and 0.5 nM tissue factor. This system is referred to as the XpPT assay.
To study the effects of heparin, 0-3 U/mL (10,000 u/mL stock) were titrated into normal, CTI (100 μg/mL), citrated plasma. Into reaction cuvettes, […] of plasma, 10 μL of 300 mM CaCl2 (final, 30 mM) and […] of 3.72 mM PCPS (final concentration, 50 μM) were added. Appropriate volumes of heparin (10,000 U/mL) were added to give 0.25, 0.5, 1.0, 1.5, 2.0, and 3.0 U/mL final concentration in 100 μL plasma. The reaction was initiated by adding 10 μL of 5 nM rTF (0.5 nM final concentration).
The assay was used along lines discussed previously except that TFPI was added (50 μg/mL stock) at 5.0, 10.0, 20.0, 60 nM final concentration and initiating with 10 μL of 5.0 nM rTF (0.5 nM).
Citrated platelet poor plasma (PPP) from a normal pool, patient cohorts, or factor V, VII, VIII and IX deficient pools was treated with 3.7 μL of 2.72 mg/mL (100 μg/mL final concentration) corn trypsin inhibitor (CTI) prior to thawing at 37° C. The thawed plasma was spun at 16,000×g (Eppendorf model 5415-C bench top centrifuge) for 10 minutes. Clot times were done by either a manual, tilt-tube method or using a Stago ST-4 detector. (Results were equivalent with each method.) For both methods test tubes made of clear polystyrene or similar clear plastic were used.
Reaction cuvettes for the ST4 clot detector were equilibrated to 37° C. (3 minutes) in the appropriate incubation chambers. Calcium equilibration was started by adding 10 μL of 300 mM CaCl2 (final, 30 mM) to 100 μL of the CTI treated citrated PPP (normal, patient or deficient) for 15 seconds followed by 1.3 μL of 3.72 mM PCPS (25:75 PC/PS) (final concentration, 50 μM) 15 seconds. The reaction was initiated by adding 10 μL of 5.0 nM rTF (final 0.5 nM TF) or 2.5 μL of 0.5 nM rTF (12.5 pM final). End point clot times were determined visually or mechanically on the ST4 using the PTT mode, no incubation, with an upper end timing limit of 999 seconds.

hemophilia C blood = assay: coagulation in hemophilia C (factor XI deficient) whole blood with factor XI replacement; format: cell-based, human; settings: for clot time: CTI 48 μg/mL
Description: Table 1 below reports the clot times for coagulation in factor XI-deficient blood, deficient blood with replacement and normal whole blood initiated at 25 and 5 pM TF with suppression of contact activation by corn trypsin inhibitor. […] Data are given for each of the experiments described in the text, along with phlebotomy control values i(in parentheses) for clotting in the absence of added tissue factor initiator. […] In all experiments, including controls, factor XIIa activity was suppressed by the addition of corn trypsin inhibitor at the level of 48 μg/mL of blood (see Methods for brief description of the experiments). For the experiments with 25 pM initiator, patient A was the donor; in the 5 pM experiments, the donor was patient B.
The protocol employed is a modification of Rand, M. D., et al. supra performed under the supervision of one of the authors (R. F. B.) at the Clinical Research Center, Fletcher Allen Health Care (Burlington, Vt.). Clotting in freshly drawn, non-anticoagulated whole blood was carried out in 32 capped polystyrene culture tubes as described, except that two series were performed per experiment (16 tubes/series). Reagents were loaded in the following amounts: corn trypsin inhibitor (all tubes, to give 50 μg/mL blood); relipidated TF (lipid:protein=2000) in HBS with 5 mM calcium (all tubes in each series except phlebotomy control tube, to give 25 or 5 pM TF/mL blood); factor VIII or factor XI (all tubes, replacement series only, to give 1 U/mL final); equivalent volume factor VIII/XI dilution buffer (HBS, pH 7.4, all tubes, deficiency series only). No more than 45 μL reagent were loaded in each tube. The zero tube of each series was pre-treated using 1 mL inhibitor cocktail (containing 50 mM EDTA and 20 mM benzamidine-HCl in HBS, pH 7.4), and 10 μL of 10 mM FPRck (diluted in 0.01 M HCl).
Patient or normal donor blood was drawn by venipuncture under a protocol approved by the Human Studies Committee at the University of Vermont, as described Rand, M. D., et al. supra. Clotting was initiated by delivery into the reagent-loaded tubes, and with periodic quenching of the tubes with inhibitor cocktail and FPRck as described above. Two series of quenched samples were obtained following reaction progress up to 20 minutes after initiation; both reducing (1% β-mercaptoethanol) and non-reducing SDS-PAGE samples were prepared from each tube (60 μL supernatant, 190 μL 2% SDS-PAGE sample solution Rand, M. D., et al. supra heated exactly 5 minutes at 98+/−2° C.). An aliquot from each tube was filtered to remove cellular contaminants for ostleonectin assays (200 μL, 0.2 μm AcroDisc, Gelman Sciences, Ann Arbor, Mich.). The remaining serum and cell pellets/clots were aliquotted to screw cap tubes, frozen and stored at −20° C. for immunoblot or immunoassay analysis.
Commercial ELISAs for fibrinopeptide A (FPA), thrombin-antithrombin-III (TAT) and platelet α-granule release (osteonectin) were performed according to manufacturers protocols, with corrections for sample dilution by added quench solution (1.00 mL) and hematocrit (typically 40% of the total blood volume). For analysis of factor Va, samples were separated on SDS-PAGE according to Laemmli, U.K. (1970) Nature 227: 680 as modified by our laboratory Rand, M. D., et al. (1996) supra. Separate gels were run for heavy chain and light chain analysis. Gels were loaded with a pre-stained molecular weight standard mixture (14-200 kDa) and dilute standards (3 samples) allowing comparison and quantitation of analyte amounts horizontally on the immunoblots. Transfer from the gel to nitrocellulose (BioRad, Hercules, Calif.) was performed for 1.5-3 hours via an SDS-free tank transfer procedure as described (Towbin H, et al. (1979) Proc Natl Acad Sci. (USA) 76: 4350 and Gallagher, S. et al. (1993) Current Protocols in Molecular Biology. J. Wiley and Sons. 10.8.1.) with subsequent immunoblot analysis according to Rand, M. D., et al.(1996) supra. […]

[3] = test system: factor XI deficient plasma; assay: tissue factor dependence of clotting in factor XI-deficient plasma; format: biochemical, human; settings: CTI, factor XI 1 U/mL
Experimental: FIG. 3 is explained as follows: clot time in factor XI deficient plasma (<1%) was measured as a function of tissue factor and […] (as described in Methods). The ordinate is shown in seconds (left-hand axis) and minutes (right-hand axis). Two curves are presented: one for factor XI deficient plasma without factor XI replacement (<1%, filled squares) and a second curve for the same plasma with 1 U/mL factor XI (25 nM, filled circles). To connect the data, smooth curves were drawn which meet near 24 pM TF. The curves become increasingly divergent as tissue factor concentration is reduced to 6 pM TF, where the difference is most pronounced.
Relipidated tissue factor reagent (see above) was rehydrated (200 μl) and diluted with HBS/calcium (2 mM) to obtain a stock reagent containing 552 pM TF and 1.10 μM PCPS. This initial stock was further diluted with PCPS (1. 10 μM) in HBS/calcium (2 mM) to obtain a set of working TF stock concentrations ranging from 17.25 to 552 pM TF at constant lipid concentration. The assay was performed according to the following protocol: Into a polystyrene tube (12×75 mm) was added 200 μL human plasma (XI-deficient, <1% XI:C; or XI-deficient with factor XI replaced at 3.5 μg/mL, 100 U/dL) and 10 μL corn trypsin inhibitor (1.15 mg/mL in HBS). […]

[4] = factor XI replacement, 25 pM TF

CC(=O)CC(c1ccccc1)c1c(O)c2ccccc2oc1=O (stereo not drawn) [Coumadin]
clot time of patient plasma ([1]; INR of 2.0, normal (INR 1) 60-75 seconds): 215 to 240 s
clot time of patient plasma ([1]; INR of 5.0): 700 to 800 s
clot time of patient plasma ([2]; INR of 2, normal 82±6s): 211 ± 8 s
clot time of patient plasma ([2]; INR of 4.3): 616 ± 9 s
XpPT clot time of patient plasma (s.e.m.) ([2]; INR of 2.0, normal 82.5±0.63 seconds): 212.6 ± 2.2 s
XpPT clot time of patient plasma (s.e.m.) ([2]; INR of 4.3): 610.8 ± 4.2 s

factor XI: human factor XI used for replacement at 1 U/mL
clot time (hemophilia C blood; XI-deficient blood (patient A) with factor XI replacement 1 U/mL, 25 pmol/L TF): 3.7 min
phlebotomy control clot time, −TF (hemophilia C blood; XI-deficient blood (patient A) with factor XI replacement, CTI, no TF): (control, −TF > 20.3 min.)
clot time (hemophilia C blood; XI-deficient blood (patient B) with factor XI replacement 1 U/mL, 5 pmol/L TF): 9.7 min
clotting time with factor XI and corn trypsin inhibitor in the absence of TF (hemophilia C blood; factor XI deficient blood): > 20 min
FPA formation rate (hemophilia C blood; factor XI replacement, 5 pM TF): 7.4 µM/min
TAT rate at clot time (hemophilia C blood; factor XI replacement, 5 pM TF): 119 nM/min
final level of TAT (hemophilia C blood; factor XI replacement, 5 pM TF): 600 nM
osteonectin release by clot time (hemophilia C blood; factor XI replacement, 5 pM TF): 67%
thrombin generation rate (hemophilia C blood; factor XI replacement, 5 pM TF): 119 nmol TAT/L/min
time after clot time to complete fibrinogen conversion (hemophilia C blood; factor XI replacement, 5 pM TF): 2 to 2.5 min
time of maximum factor Va heavy chain (hemophilia C blood; factor XI replacement, 5 pM TF): ~12 min
final TAT concentration (hemophilia C blood; [4]): 950 nM
maximum rate of FPA release (hemophilia C blood; [4]): 7.3 µM/min
rate of thrombin generation (hemophilia C blood; [4]): 85 nmol·L/min
thrombin generation rate (hemophilia C blood; [4]): 85 nmol TAT/L/min
shortening of clot time by factor XI replacement (hemophilia C blood; hemophilia C blood, 5 pM TF): 6 min
difference in clot time without versus with factor XI ([3]; 6 pM TF): 5.7 min
difference in clot time without versus with factor XI ([3]; 24 pM TF): 0.467 min
